Measured values published in the supplement of paper PMC9013687.
± gives the standard deviation of the averaged measurements.

Columns and labels:
[1] = system: Danio rerio embryo; assay: EC10 Pericard size_Increase; higher = less potent; conditions: exposure time: 4 dpf
Experimental: (§1)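 Zebrafish embryos (UFZ-OBI strain) were exposed from 2 hpf for 48 h (2 dpf) or 96 h (4 dpf) at 28 °C; spontaneous tail coiling was scored at 25 hpf. Morphological features from automated image analysis (FishInspector), heart rate and locomotor response were fitted with drc models. Quantal endpoints were dichotomised at 2.5 SD from controls and fitted with a log-logistic model; heart rate, pigmentation and STC were normalised to the replicate control mean. Betamethasone was tested as betamethasone dipropionate, diflorasone as diflorasone diacetate.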

[2] = system: Danio rerio embryo; assay: EC50 Yolk sac size_Decrease; conditions: exposure time: 4 dpf
Experimental: as §1

[3] = system: Danio rerio embryo; assay: EC10 Yolk sac size_Decrease; higher = less potent; conditions: exposure time: 4 dpf
Experimental: as §1

[4] = system: Danio rerio embryo; assay: EC50 Pericard size_Increase; conditions: exposure time: 4 dpf
Experimental: as §1

[5] = system: Danio rerio embryo; assay: EC50 Bladder size_Decrease; conditions: exposure time: 4 dpf
Experimental: as §1

[6] = system: Danio rerio embryo; assay: EC10 Lack of SB; higher = less potent; conditions: exposure time: 4 dpf
Experimental: as §1

[7] = system: Danio rerio embryo; assay: spontaneous tail coiling frequency (coils/min/embryo); higher = more spontaneous movement; conditions: 25 hpf
Experimental: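 Spontaneous tail coilings of zebrafish embryos exposed from 2 hpf were recorded at 24-25 hpf in 1-min videos and detected by a KNIME workflow from grey-value variance. Betamethasone was tested as the dipropionate, diflorasone as the diacetate.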

[8] = system: Danio rerio embryo; assay: EC10 Bladder size_Decrease; higher = less potent; conditions: exposure time: 4 dpf
Experimental: as §1

[9] = system: Danio rerio embryo; assay: EC20 Bladder size_Decrease; higher = less potent; conditions: exposure time: 4 dpf
Experimental: as §1

[10] = system: Danio rerio embryo; assay: EC20 Any effect; higher = less potent
Experimental: as §1

[11] = system: Danio rerio embryo; assay: EC20 Lack of SB; higher = less potent; conditions: exposure time: 4 dpf
Experimental: as §1

[12] = system: Danio rerio embryo; assay: EC10 Any effect; higher = less potent
Experimental: as §1

[13] = system: Danio rerio embryo; assay: EC20 Yolk sac size_Decrease; higher = less potent; conditions: exposure time: 4 dpf
Experimental: as §1

[14] = system: Danio rerio embryo; conditions: exposure time: 4 dpf
Experimental: as §1

[15] = system: Danio rerio embryo
Experimental: as §1

[16] = system: Danio rerio embryo; assay: EC20 Pericard size_Increase; higher = less potent; conditions: exposure time: 4 dpf
Experimental: as §1

[17] = system: Danio rerio embryo; assay: EC20 Otolith-eye distance_Decrease; higher = less potent; conditions: exposure time: 4 dpf
Experimental: as §1

[18] = system: Danio rerio embryo; assay: EC10 Eye-jaw distance_Decrease; higher = less potent; conditions: exposure time: 4 dpf
Experimental: as §1

[19] = system: Danio rerio embryo; conditions: exposure time: 4 dpf; remark: listed apart in the source
Experimental: as §1

[20] = system: Danio rerio embryo; assay: EC10 LMR dark; higher = less potent; conditions: exposure time: 4 dpf
Experimental: as §1

[21] = system: Danio rerio embryo; assay: EC10 Otolith-eye distance_Decrease; higher = less potent; conditions: exposure time: 4 dpf
Experimental: as §1

[22] = system: Danio rerio embryo; assay: EC10 Eye size_Decrease; higher = less potent
Experimental: as §1

[23] = system: Danio rerio embryo; assay: EC20 Pigmentation decrease; higher = less potent
Experimental: as §1

[24] = system: Danio rerio embryo; assay: EC10 LMR ligth decrease; higher = less potent; conditions: exposure time: 4 dpf
Experimental: as §1

[25] = system: Danio rerio embryo; assay: EC20 Curvature_Increase; higher = less potent
Experimental: as §1

[26] = system: Danio rerio embryo; assay: EC50 Body length_Decrease
Experimental: as §1

[27] = system: Danio rerio embryo; assay: EC20 LMR dark; higher = less potent; conditions: exposure time: 4 dpf
Experimental: as §1

[28] = system: Danio rerio embryo; remark: listed apart in the source
Experimental: as §1

[29] = system: Danio rerio embryo; assay: EC50 Otolith-eye distance_Decrease; conditions: exposure time: 4 dpf
Experimental: as §1

[30] = system: Danio rerio embryo; assay: EC50 Eye-jaw distance_Decrease; conditions: exposure time: 4 dpf
Experimental: as §1

[31] = system: Danio rerio embryo; assay: EC50 Curvature_Increase
Experimental: as §1

[32] = system: Danio rerio embryo; assay: EC20 Eye size_Decrease; higher = less potent
Experimental: as §1

[33] = system: Danio rerio embryo; assay: EC20 Body length_Decrease; higher = less potent
Experimental: as §1

[34] = system: Danio rerio embryo; assay: EC20 Eye-jaw distance_Decrease; higher = less potent; conditions: exposure time: 4 dpf
Experimental: as §1

[35] = system: Danio rerio embryo; assay: EC10 Pigmentation decrease; higher = less potent
Experimental: as §1

[36] = system: Danio rerio embryo; assay: EC50 Eye size_Decrease
Experimental: as §1

[37] = system: Danio rerio embryo; assay: EC20 STC bell shape; higher = less potent; conditions: exposure time: 25 h
Experimental: as §1

[38] = system: Danio rerio embryo; assay: EC10 Curvature_Increase; higher = less potent
Experimental: as §1

[39] = system: Danio rerio embryo; assay: EC10 Body length_Decrease; higher = less potent
Experimental: as §1

[40] = system: Danio rerio embryo; assay: EC10 STC bell shape; higher = less potent; conditions: exposure time: 25 h
Experimental: as §1

[41] = system: Danio rerio embryo; assay: EC20 LMR ligth decrease; higher = less potent; conditions: exposure time: 4 dpf
Experimental: as §1

## C[C@@H]1C[C@H]2[C@@H]3CCC4=CC(=O)C=C[C@]4(C)[C@@]3(F)[C@@H](O)C[C@]2(C)[C@@]1(O)C(=O)CO [Dexamethasone]
[1]
  EC10 Pericard size Increase: 5.95 µM
[2]
  EC50 Yolk sac size Decrease: 259 µM
[3]
  EC10 Yolk sac size Decrease: 2.27 µM
[4]
  EC50 Pericard size Increase: 226 µM
[5]
  EC50 Bladder size Decrease: 14.3 µM
[6]
  EC10 Lack of SB: 0.944 µM
[7]; 2.5 µM
  spontaneous tail coiling frequency: 2.19 ± 1.4
[7]; 25.5 µM
  spontaneous tail coiling frequency: 3.02 ± 0.14
[7]; 63.7 µM
  spontaneous tail coiling frequency: 2.67 ± 0.078
[7]; 127.4 µM
  spontaneous tail coiling frequency: 3.04 ± 0.58
[7]; 254.8 µM
  spontaneous tail coiling frequency: 2.79 ± 1.5
[8]
  EC10 Bladder size Decrease: 1.02 µM
[9]
  EC20 Bladder size Decrease: 2.7 µM
[10]; exposure time: 4 dpf
  EC20 Any effect: 7.45 µM
[11]
  EC20 Lack of SB: 2.7 µM
[12]; exposure time: 4 dpf
  EC10 Any effect: 1.52 µM
[13]
  EC20 Yolk sac size Decrease: 13.1 µM
[14]
  EC50 Lack of SB: 16.2 µM
[15]; exposure time: 4 dpf
  EC50 Any effect: 113 µM
[16]
  EC20 Pericard size Increase: 22.8 µM

## CC(=O)Nc1ccc(O)cc1 [Acetaminophen]
[17]
  EC20 Otolith-eye distance Decrease: 2080 µM
[1]
  EC10 Pericard size Increase: 2250 µM
[18]
  EC10 Eye-jaw distance Decrease: 2200 µM
[19]
  EC50 LMR dark: 897 µM
[4]
  EC50 Pericard size Increase: 3010 µM
[20]
  EC10 LMR dark: 337 µM
[5]
  EC50 Bladder size Decrease: 1420 µM
[21]
  EC10 Otolith-eye distance Decrease: 1780 µM
[22]; exposure time: 2 dpf
  EC10 Eye size Decrease: 1980 µM
[22]; exposure time: 4 dpf
  EC10 Eye size Decrease: 1670 µM
[23]; exposure time: 2 dpf
  EC20 Pigmentation decrease: 1180 µM
[23]; exposure time: 4 dpf
  EC20 Pigmentation decrease: 2730 µM
[6]
  EC10 Lack of SB: 1080 µM
[24]
  EC10 LMR ligth decrease: 467 µM
[8]
  EC10 Bladder size Decrease: 1020 µM
[25]; exposure time: 2 dpf
  EC20 Curvature Increase: 2600 µM
[25]; exposure time: 4 dpf
  EC20 Curvature Increase: 3370 µM
[9]
  EC20 Bladder size Decrease: 1150 µM
[10]; exposure time: 2 dpf
  EC20 Any effect: 2050 µM
[10]; exposure time: 4 dpf
  EC20 Any effect: 1150 µM
[26]; exposure time: 2 dpf
  EC50 Body length Decrease: 3990 µM
[26]; exposure time: 4 dpf
  EC50 Body length Decrease: 3940 µM
[27]
  EC20 LMR dark: 500 µM
[28]; exposure time: 2 dpf
  EC50 Pigmentation decrease: 1580 µM
[28]; exposure time: 4 dpf
  EC50 Pigmentation decrease: 16300 µM
[11]
  EC20 Lack of SB: 1200 µM
[29]
  EC50 Otolith-eye distance Decrease: 2720 µM
[30]
  EC50 Eye-jaw distance Decrease: 2830 µM
[31]; exposure time: 2 dpf
  EC50 Curvature Increase: 3760 µM
[31]; exposure time: 4 dpf
  EC50 Curvature Increase: 3830 µM
[32]; exposure time: 2 dpf
  EC20 Eye size Decrease: 2300 µM
[32]; exposure time: 4 dpf
  EC20 Eye size Decrease: 1740 µM
[33]; exposure time: 2 dpf
  EC20 Body length Decrease: 3500 µM
[33]; exposure time: 4 dpf
  EC20 Body length Decrease: 3170 µM
[34]
  EC20 Eye-jaw distance Decrease: 2410 µM
[12]; exposure time: 2 dpf
  EC10 Any effect: 1740 µM
[12]; exposure time: 4 dpf
  EC10 Any effect: 915 µM
[35]; exposure time: 2 dpf
  EC10 Pigmentation decrease: 1010 µM
[35]; exposure time: 4 dpf
  EC10 Pigmentation decrease: 2380 µM
[36]; exposure time: 2 dpf
  EC50 Eye size Decrease: 2960 µM
[36]; exposure time: 4 dpf
  EC50 Eye size Decrease: 1850 µM
[37]
  EC20 STC bell shape: 6320 µM
[38]; exposure time: 2 dpf
  EC10 Curvature Increase: 2100 µM
[38]; exposure time: 4 dpf
  EC10 Curvature Increase: 3130 µM
[14]
  EC50 Lack of SB: 1440 µM
[39]; exposure time: 2 dpf
  EC10 Body length Decrease: 3230 µM
[39]; exposure time: 4 dpf
  EC10 Body length Decrease: 2790 µM
[15]; exposure time: 2 dpf
  EC50 Any effect: 2690 µM
[15]; exposure time: 4 dpf
  EC50 Any effect: 1710 µM
  EC50 LMR ligth decrease: 821 µM
[15]; exposure time: 25 h
  EC50 STC bell shape: 8110 µM
[16]
  EC20 Pericard size Increase: 2500 µM
[40]
  EC10 STC bell shape: 5590 µM
[41]
  EC20 LMR ligth decrease: 570 µM
